# Laboratory results: patent US20070093455A1, “10-substituted tetracyclines and methods of use thereof” (priority 2005, published 2007)
# What was measured:
# S. aureus RN450 = assay: In vitro MIC assay, S. aureus RN450; type: cell-based; conditions: Staphylococcus aureus, broth microdilution, 35° C., 18-24 hours
# S. aureus MRSA5 = assay: In vitro MIC assay, S. aureus MRSA5; type: cell-based; conditions: Staphylococcus aureus, broth microdilution, 35° C., 18-24 hours
# S. aureus RN4250 = assay: In vitro MIC assay, S. aureus RN4250; type: cell-based; conditions: Staphylococcus aureus, broth microdilution, 35° C., 18-24 hours
# S. pneumoniae 157E = assay: In vitro MIC assay, S. pneumoniae 157E; type: cell-based; conditions: Streptococcus pneumoniae, broth supplemented with lysed horse blood, 35° C., 18-24 hours
# E. coli (ATCC 25922) = assay: In vitro MIC assay, E. coli (ATCC 25922); type: cell-based; conditions: Escherichia coli, ATCC25922; broth microdilution, 35° C., 18-24 hours
# E. coli MG 1655 DWAK = assay: In vitro MIC assay, E. coli MG 1655 DWAK; type: cell-based; conditions: Escherichia coli, MG1655DWAK; broth microdilution, 35° C., 18-24 hours
# Method: The following assay was used to determine the efficacy of tetracycline compounds against common bacteria. Serial dilutions of compounds were prepared in microdilution plates using a Tecan robotic workstation. Mueller Hinton broth cultures of gram negative and gram positive strains were grown or adjusted to match the turbidity of a 0.5 McFarland standard. 1:200 dilutions were made in appropriate broth (cation supplemented Mueller Hinton broth or Haemophilus test medium) to allow a final inoculum of 1×10^5 cfu. Lysed horse blood was used to supplement broth for testing S. pneumoniae. The plates were incubated at 35° C. in ambient air for 18-24 hours, read spectrophotometrically, and checked manually for evidence of bacterial growth. Serial dilutions of compounds were also added to Brucella agar supplemented with laked sheep blood for P. acnes tests. A standard inoculum was transferred to the plate using a stainless steel replicator. After 48 hours of anaerobic incubation at 35° C. plates were examined. The MIC was defined as the lowest concentration of the tetracycline compound that inhibits growth. Table 3 gives the MIC (μg/mL) of selected substituted tetracycline compounds against a variety of gram positive and gram negative bacteria.
# P. aeruginosa K1033 = assay: In vitro MIC assay, P. aeruginosa K1033; type: cell-based; conditions: Pseudomonas aeruginosa, broth microdilution, 35° C., 18-24 hours
# [1] = tested on: H. influenza (ATCC 49247); assay: In vitro MIC assay, H. influenza (ATCC 49247); type: cell-based; conditions: read-out: MIC H. influenza (ATCC 49247)
# E. coli translation = assay: In vitro translation assay for inhibition of bacterial protein synthesis (E. coli S30 Extract System, luciferase); type: biochemical; conditions: 37° C., 1 hour, luciferase luminescence
# Method: As a further measure of antibacterial activity, an E. coli S30 Extract System was used to quantitate inhibition of E. coli translation by tetracycline derivatives. This system contained all required components for translation, including a nucleic acid template which, when translated, produces functional luciferase. The reactions were set up with E. coli S30 extract, amino acids, DNA template and selected tetracycline compounds at concentrations of 100, 50, 25, 10, 5, and 1 μg/ml. The reactions were incubated at 37° C. for 1 hour and analyzed by adding the reaction mix to Steady-Glo Luciferase Assay substrate (Promega, Madison Wis.). Luminescence was measured with the Wallac Victor5 plate reader and inhibition is calculated by comparing luciferase activity in experimental reactions versus controls.
# COS-1 or CHO cell = assay: Mammalian cell cytotoxicity assay (Resazurin; Alamar Blue); type: cell-based; conditions: COS-1 or CHO cells, 24 hour incubation
# Method: To predict the in vivo risks associated with the compounds of the invention, a soluble, non-toxic redox dye (“Resazurin”; Alamar Blue) was used to assess a compound's effect on cellular metabolism. COS-1 or CHO cell suspensions were prepared, seeded into 96-well black-walled microtiter plates, and incubated overnight at 37° C., in 5% CO2 and approximately 95% humidity. On the next day, serial dilutions of test drug were prepared and transferred to cell plates. Following a 24 hour incubation period, the media/drug was aspirated, and 50 μL of resazurin was added. After a 2 hour incubation, fluorescence measurements were taken (excitation […], emission 590 nm) and toxic effects in treated versus control cells were compared based on the degree of fluorescence in each well.
# [2] = tested on: Mouse 3T3 fibroblast cells; assay: Phototoxicity assay (neutral red); type: cell-based; conditions: 3T3 cells; for phototoxicity at 30 μM, incubated in the UV light: UV light 1.6-1.8 mW/cm^2, 30 μM
# Method: Mouse 3T3 fibroblast cells were harvested and plated at a concentration of 1×10^5 cells/mL. Drug dilutions were made in HBSS and added to the plates. Duplicate plates were then incubated in the dark (for controls), or under UV light (meter reading of 1.6-1.8 mW/cm^2) for 50 minutes. Cells were then washed with HBSS, fresh medium was added, and plates were then incubated overnight. The following day, neutral red was added as an indicator of cell viability and plates were incubated for an additional 3 hours. Cells were then washed with HBSS and a solution of 50% EtOH, 10% glacial acetic acid is added. After a 20 minute incubation period, plates absorbance at 535 nm were read using a Wallac Victor 5 spectrophotometer. The phototoxicity in light-treated and control cultures was then compared.
# B. fragilis (ATCC 25285) = assay: In vitro MIC assay, B. fragilis (ATCC 25285); type: cell-based; conditions: Bacteroides fragilis, ATCC25285
# [3] = tested on: B. theraiotaomicron (ATCC 29741); assay: In vitro MIC assay, B. theraiotaomicron (ATCC 29741); type: cell-based
# P. acnes (ATCC 6919) = assay: In vitro MIC assay, P. acnes (ATCC 6919); type: cell-based; conditions: Cutibacterium acnes, ATCC6919; Brucella agar with laked sheep blood, 48 hours anaerobic, 35° C.
# P. acnes (ATCC 11827) = assay: In vitro MIC assay, P. acnes (ATCC 11827); type: cell-based; conditions: Cutibacterium acnes, ATCC11827; Brucella agar with laked sheep blood, 48 hours anaerobic, 35° C.
# P. acnes (PBS 1073) = assay: In vitro MIC assay, P. acnes (PBS 1073); type: cell-based; conditions: Cutibacterium acnes; Brucella agar with laked sheep blood, 48 hours anaerobic, 35° C.
# P. acnes (PBS 1074) = assay: In vitro MIC assay, P. acnes (PBS 1074); type: cell-based; conditions: Cutibacterium acnes; Brucella agar with laked sheep blood, 48 hours anaerobic, 35° C.
# P. acnes (ATCC 1077) = assay: In vitro MIC assay, P. acnes (ATCC 1077); type: cell-based; conditions: Cutibacterium acnes, ATCC1077; Brucella agar with laked sheep blood, 48 hours anaerobic, 35° C.
Compound,MIC (S. aureus RN450),MIC (S. aureus MRSA5),MIC (S. aureus RN4250),MIC (S. pneumoniae 157E),MIC (E. coli (ATCC 25922)),MIC (E. coli MG 1655 DWAK),MIC (P. aeruginosa K1033),MIC [1],IC20 (E. coli translation),IC50 (E. coli translation),cytotoxicity at 75 μg/mL (COS-1 or CHO cell),"phototoxicity at 30 μM, incubated in the UV light [2]","phototoxicity at 150 μM, incubated in the dark [2]",MIC (B. fragilis (ATCC 25285)),MIC [3],MIC (P. acnes (ATCC 6919)),MIC (P. acnes (ATCC 11827)),MIC (P. acnes (PBS 1073)),MIC (P. acnes (PBS 1074)),MIC (P. acnes (ATCC 1077))
CC1CCN(c2cccc3c2C(=O)C2=C(O)[C@]4(O)C(=O)C(C(N)=O)=C(O)[C@@H](N(C)C)C4CC2C3)CC1 (stereo partly drawn) [M],44 to 64 µg/mL,44 to 64 µg/mL,44 to 64 µg/mL,22 to 43 µg/mL,44 to 64 µg/mL,0 to 21 µg/mL,0 to 21 µg/mL,0 to 21 µg/mL,< 100 µM,< 100 µM,minimal cytotoxicity,minimally phototoxic,not to be appreciably phototoxic,,,,,,,
CN(C)c1cc2cc(-c3ccc(N)cc3)oc2c2c1CC1CC3[C@H](N(C)C)C(O)=C(C(N)=O)C(=O)[C@@]3(O)C(O)=C1C2=O (stereo partly drawn) [Q],0 to 21 µg/mL,0 to 21 µg/mL,0 to 21 µg/mL,22 to 43 µg/mL,,,,44 to 64 µg/mL,< 100 µM,< 100 µM,,,,,,,,,,
CN(C)[C@H]1C(O)=C(C(N)=O)C(=O)[C@@]2(O)C(O)=C3C(=O)c4cccc(-c5ncccn5)c4CC3CC12 (stereo partly drawn) [L],0 to 21 µg/mL,0 to 21 µg/mL,0 to 21 µg/mL,0 to 21 µg/mL,22 to 43 µg/mL,0 to 21 µg/mL,0 to 21 µg/mL,44 to 64 µg/mL,,,minimal cytotoxicity,,,0 to 8 µg/mL,28 to 32 µg/mL,0 to 8 µg/mL,0 to 8 µg/mL,28 to 32 µg/mL,28 to 32 µg/mL,28 to 32 µg/mL
CN(C)c1cc(C(=O)O)cc2c1CC1CC3[C@H](N(C)C)C(O)=C(C(N)=O)C(=O)[C@@]3(O)C(O)=C1C2=O (stereo partly drawn) [D],44 to 64 µg/mL,44 to 64 µg/mL,44 to 64 µg/mL,44 to 64 µg/mL,44 to 64 µg/mL,44 to 64 µg/mL,44 to 64 µg/mL,44 to 64 µg/mL,< 100 µM,< 100 µM,minimal cytotoxicity,minimally phototoxic,not to be appreciably phototoxic,,,,,,,
NC(=O)C1=C(O)CC2CC3Cc4ccccc4C(=O)C3=C(O)[C@]2(O)C1=O (stereo partly drawn) [F],0 to 21 µg/mL,0 to 21 µg/mL,0 to 21 µg/mL,22 to 43 µg/mL,44 to 64 µg/mL,0 to 21 µg/mL,0 to 21 µg/mL,0 to 21 µg/mL,< 100 µM,< 100 µM,,,not to be appreciably phototoxic,,,,,,,
CN(C)c1cccc2c1CC1CC3[C@@H](N(C)C)C(O)=C(C(N)=O)C(=O)[C@@]3(O)C(O)=C1C2=O (stereo partly drawn) [C],0 to 21 µg/mL,44 to 64 µg/mL,0 to 21 µg/mL,0 to 21 µg/mL,44 to 64 µg/mL,0 to 21 µg/mL,0 to 21 µg/mL,22 to 43 µg/mL,> 100 µM,> 100 µM,minimal cytotoxicity,,not to be appreciably phototoxic,,,,,,,
CC(=O)c1cc2c(c(N(C)C)c1)CC1CC3[C@H](N(C)C)C(O)=C(C(N)=O)C(=O)[C@@]3(O)C(O)=C1C2=O (stereo partly drawn) [H],44 to 64 µg/mL,44 to 64 µg/mL,44 to 64 µg/mL,44 to 64 µg/mL,44 to 64 µg/mL,22 to 43 µg/mL,22 to 43 µg/mL,44 to 64 µg/mL,< 100 µM,< 100 µM,minimal cytotoxicity,,not to be appreciably phototoxic,,,,,,,
